According to US20040009170A1, “Alpha-melanocyte stimulating hormone peptides protection in organ transplantation” (priority 2002, published 2004):

Assays:
[1] = system: donor cardiac grafts (Brown Norway) transplanted into recipient (Lewis) rats; experiment: Heterotopic heart transplantation in rats: allograft survival; type: in vivo, rat
Text: Adult inbred Brown Norway (donor) and Lewis (recipient) male rats, weighing 200-300 g were used in this study (Charles River, Calco, Italy). Animals were maintained at the animal care facilities of the Department of Hepatology, Ospedale Maggiore di Milano, Italy, under standard temperature, humidity, and time-regulated light conditions. Water and food were provided ad libitum. All animals received care in compliance with the Principles of Laboratory Animal Care, formulated by the National Society of Medical Research, and the Guide for the Care and Use of Laboratory Animals, prepared by the National Academy of Sciences and published by the National Institutes of Health (NIH Publication No. 8623, revised 1985).
Before transplantation, animals were anesthetized with an intraperitoneal injection of 125-mg/kg ketamine. During anesthesia, heart rate, ventilation rate, and temperature were closely monitored. Donor cardiac grafts (Brown Norway) were transplanted into the abdominal cavity of the recipient (Lewis) rats using the technique described by Ono and Lindsey. […] Graft function was monitored by palpation through the abdominal wall twice daily. […]
Statistical analysis was performed using SigmaStat statistical software (Jandel Scientific GmbH, Germany). Values are expressed as mean±SEM. […] Difference in median graft survival time was evaluated using the Mann-Whitney Rank Sum Test. […]

[2] = depending upon the assay employed; cited from earlier work
[3] = Plasma nitrite (NO2-) determination after heart transplantation (Griess); type: in vivo, rat; settings: all intervals (day 1, day 4, rejection)
Procedure: Plasma was separated by centrifugation, aliquoted, and stored at −80° C.
Nitric oxide determinations were performed. Specifically, plasma nitrite concentration was determined at times of sacrifice as a measure of nitric oxide release. Nitrates (NO3^−) were converted into nitrites (NO2^−) by treatment of serum with nitrate reductase (Boehringer Mannheim Italia SpA, Milan, Italy). After enzymatic reduction, samples were mixed with equal amounts of Griess reagent (sulfanilamide 1%, napthlethylenediamide 0.1% in phosphoric acid 0.25%). Samples were incubated at room temperature for 10 min and absorbency was measured at 540 nm using a microplate automatic reader.

[4] = system: heart grafts (Brown Norway into Lewis rats); experiment: Histopathological evaluation and ED1 immunohistochemistry of heart grafts; type: in vivo, rat
Procedure: Experiments were performed to determine whether NDP-α-MSH treatment prolongs allograft survival. For this purpose, NDP-α-MSH or saline was administered from the time of transplantation until spontaneous rejection. In such experiments (n=7), rats were sacrificed when there was loss of palpable contractile activity of the graft. Studies were performed focusing on the influence of NDP-α-MSH on graft histopathology and transcripts involved in inflammation and rejection. For these studies, rats (n=6) were sacrificed 1 or 4 days after transplantation. NDP-α-MSH or saline was administered from day 0 until the sacrifice.
Heart grafts, removed from rats on day 1, 4, or at the time of rejection, were sectioned coronally. Two sections were snap-frozen in liquid nitrogen and stored at −80° C. for RNA extraction and RT-PCR assays. One section was fixed in 10% buffered formalin and paraffin-embedded for light microscopy examination.
Histopathological evaluation was then performed. Three μm coronal sections of heart grafts were stained with hematoxylin and eosin. Histopathological lesions were scored by two blinded observers using a 5-point scale according to combined assessments of edema (absent, perivascular/mild interstitial, subendocardial, diffuse interstitial, massive); inflammatory cell infiltration (absent, perivascular, subendocardial, diffuse interstitial, massive), and myocytolysis (absent, focal, massive): 0=minimum damage, 1+=mild damage, 2+=moderate damage, 3+=severe damage, and 4+=maximum damage.
Analysis of graft infiltrating monocytes/macrophages was performed through immunohistochemical detection of ED1-positive cells. Sections were stained using the peroxidase-antiperoxidase (PAP) technique, after incubation with mouse anti-rat ED 1 or control antibody (Santa Cruz Biotech, Santa Cruz, Calif., USA). Slides were counterstained with hematoxylin and eosin.
Statistical analysis was performed using SigmaStat statistical software (Jandel Scientific GmbH, Germany). Values are expressed as mean±SEM. Unpaired Student's t test was used to compare differences between values in histological scores. Difference in median graft survival time was evaluated using the Mann-Whitney Rank Sum Test. A probability value<0.05 was considered statistically significant.

proteolytic enzymes = settings: cited from earlier work
[5] = 4 days after transplantation, vs untreated
[6] = day 1 after transplantation, vs untreated

In the case of Nle^4DPhe^7-α-MSH [NDP-α-MSH], the Median graft survival ([1]; 100 μg i.p. every 12 h from 1 h before transplantation until rejection, no immunosuppression, untreated 6 days, p<0.001) is listed as 10 days, the “Graft survival time, range” value ([1]; 100 μg i.p. every 12 h until rejection, untreated range 6-8) is listed as 9 to 11 days and the “Activity relative to the natural molecule” value [2] is listed as 10- to 1000 times. For the same substance, the “Increases in plasma NO2- concentration vs untreated” value [3] was “significantly lower”, the “ED1-positive cells infiltrating the graft” value [4, 5] was “fewer and dispersed” and the Inflammation and edema [4, 5] was “milder and mostly restricted to the subendocardial region”. The “Histopathological score of heart grafts” value ([4]; 4 days after transplantation, untreated 10.8±0.80, p<0.01) was 7.0±0.64, the “Histology of rejected hearts, treated vs untreated” value ([4]; at time of rejection) was “no significant differences” and the Inflammatory cell infiltration [4, 6] was “much less”. For the same substance, the Intragraft edema [4, 6] was “milder and generally restricted to the perivascular spaces”, the “Histopathological score of heart grafts” value ([4]; day 1 after transplantation, mean±SEM, untreated 8.7±0.25, p<0.001) was 3.0±0.90 and the “Inactivation by proteolytic enzymes” value (proteolytic enzymes) was “resistant”.
